Paper PMC8923172 (Antimicrobial Agents and Chemotherapy, 2022)
Marks after values point to notes of the source that are not given here. Residues, ends and D or L forms follow the SMILES beside them.

Test: Hematology of rats at the end of treatment
Type: in vivo, Sprague-Dawley rats
Conditions: median (IQR)

CC[C@H](C)[C@@H]1NC(=O)[C@@H]2CSSC[C@H](NC(=O)[C@H](CCCNC(=N)N)NC(=O)[C@@H]3CSSC[C@H](NC1=O)C(=O)N[C@@H]([C@@H](C)O)C(=O)N[C@@H](CCCNC(=N)N)C(=O)NCC(=O)N[C@@H](Cc1ccccc1)C(=O)N3)C(=O)N[C@@H](CC(C)C)C(=O)N[C@H]1CSSC[C@H](NC(=O)[C@H](C(C)C)NC(=O)CNC(=O)[C@H](CCCNC(=N)N)NC(=O)[C@H](CCCNC(=N)N)NC1=O)C(=O)N[C@@H](CCCNC(=N)N)C(=O)N2 [RTD-1, Rhesus theta (θ) defensin-1] (HELM PEPTIDE1{G.F.C.R.C.L.C.R.R.G.V.C.R.C.I.C.T.R}$PEPTIDE1,PEPTIDE1,3:R3-16:R3|PEPTIDE1,PEPTIDE1,5:R3-14:R3|PEPTIDE1,PEPTIDE1,7:R3-12:R3|PEPTIDE1,PEPTIDE1,1:R1-18:R2$$$V2.0)
Lymphocytes, absolute (female, 10 mg/kg/day): 7.13 (1.76)^c 10^3/mm^3
MCH (female, 10 mg/kg/day): 18.95 (0.45) pg
MCHC (female, 10 mg/kg/day): 33.25 (0.35) g/dL
MCV (female, 10 mg/kg/day): 57.30 (2.43) fL
Monocytes, absolute (female, 10 mg/kg/day): 0.39 (0.13)^c^,^d 10^3/mm^3
Neutrophils, absolute (female, 10 mg/kg/day): 2.18 (1.30) 10^3/mm^3
Platelets (female, 10 mg/kg/day): 939.00 (314.75) 10^3/mm^3
RBC (female, 10 mg/kg/day): 7.21 (0.40) 10^6/mm^3
RDW (female, 10 mg/kg/day): 12.95 (0.40) %
Reticulocytes, absolute (female, 10 mg/kg/day): 277.25 (42.00) 10^3/mm^3
WBC (female, 10 mg/kg/day): 10.75 (3.68)^c 10^3/mm^3
Basophils, absolute (female, 20 mg/kg, day 2): 0.06 (0.06) 10^3/mm^3
Eosinophils, absolute (female, 20 mg/kg, day 2): 0.13 (0.06)^c^,^e 10^3/mm^3
HDW (female, 20 mg/kg, day 2): 2.37 (0.32) g/dL
Hematocrits (female, 20 mg/kg, day 2): 46.85 (14.28) %
Hemoglobin (female, 20 mg/kg, day 2): 15.15 (4.58) g/dL
LUC, absolute (female, 20 mg/kg, day 2): 0.05 (0.03) 10^3/mm^3
Lymphocytes, absolute (female, 20 mg/kg, day 2): 5.56 (2.93) 10^3/mm^3
MCH (female, 20 mg/kg, day 2): 19.60 (0.88) pg
MCHC (female, 20 mg/kg, day 2): 32.30 (0.30)^d^,^e g/dL
MCV (female, 20 mg/kg, day 2): 60.95 (2.18)^e fL
Monocytes, absolute (female, 20 mg/kg, day 2): 0.33 (0.26)^c 10^3/mm^3
Neutrophils, absolute (female, 20 mg/kg, day 2): 2.55 (2.72) 10^3/mm^3
Platelets (female, 20 mg/kg, day 2): 603.50 (524.00)^e 10^3/mm^3
RBC (female, 20 mg/kg, day 2): 7.63 (2.19) 10^6/mm^3
RDW (female, 20 mg/kg, day 2): 12.20 (0.57)^e %
Reticulocytes, absolute (female, 20 mg/kg, day 2): 325.95 (60.38)^c^,^d 10^3/mm^3
WBC (female, 20 mg/kg, day 2): 8.15 (5.70) 10^3/mm^3
Basophils, absolute (male, 5 mg/kg/day): 0.03 (0.02) 10^3/mm^3
Eosinophils, absolute (male, 5 mg/kg/day): 0.37 (0.10) 10^3/mm^3
HDW (male, 5 mg/kg/day): 2.30 (0.09) g/dL
Hematocrits (male, 5 mg/kg/day): 43.75 (1.73) %
Hemoglobin (male, 5 mg/kg/day): 14.10 (0.98) g/dL
LUC, absolute (male, 5 mg/kg/day): 0.03 (0.02) 10^3/mm^3
Lymphocytes, absolute (male, 5 mg/kg/day): 6.03 (1.81) 10^3/mm^3
MCH (male, 5 mg/kg/day): 19.95 (1.35) pg
MCHC (male, 5 mg/kg/day): 32.10 (0.33) g/dL
MCV (male, 5 mg/kg/day): 61.75 (2.90) fL
Monocytes, absolute (male, 5 mg/kg/day): 0.22 (0.20) 10^3/mm^3
Neutrophils, absolute (male, 5 mg/kg/day): 2.04 (0.96) 10^3/mm^3
Platelets (male, 5 mg/kg/day): 1,052.00 (145.00) 10^3/mm^3
RBC (male, 5 mg/kg/day): 7.06 (0.23) 10^6/mm^3
RDW (male, 5 mg/kg/day): 13.95 (1.15) %
Reticulocytes, absolute (male, 5 mg/kg/day): 359.65 (38.03) 10^3/mm^3
WBC (male, 5 mg/kg/day): 8.40 (2.53) 10^3/mm^3
Basophils, absolute (male, 10 mg/kg/day): 0.03 (0.02) 10^3/mm^3
Eosinophils, absolute (male, 10 mg/kg/day): 0.31 (0.24) 10^3/mm^3
HDW (male, 10 mg/kg/day): 2.20 (0.20) g/dL
Hematocrits (male, 10 mg/kg/day): 43.65 (1.20) %
Hemoglobin (male, 10 mg/kg/day): 14.20 (0.65) g/dL
LUC, absolute (male, 10 mg/kg/day): 0.03 (0.02) 10^3/mm^3
Lymphocytes, absolute (male, 10 mg/kg/day): 6.69 (2.92) 10^3/mm^3
MCH (male, 10 mg/kg/day): 20.20 (0.55) pg
MCHC (male, 10 mg/kg/day): 32.35 (0.72) g/dL
MCV (male, 10 mg/kg/day): 62.60 (3.05) fL
Monocytes, absolute (male, 10 mg/kg/day): 0.28 (0.10) 10^3/mm^3
Neutrophils, absolute (male, 10 mg/kg/day): 1.85 (0.61) 10^3/mm^3
Platelets (male, 10 mg/kg/day): 1,086.00 (192.25) 10^3/mm^3
RBC (male, 10 mg/kg/day): 7.06 (0.38) 10^6/mm^3
RDW (male, 10 mg/kg/day): 13.10 (1.13) %
Reticulocytes, absolute (male, 10 mg/kg/day): 314.20 (33.35)^c 10^3/mm^3
WBC (male, 10 mg/kg/day): 10.05 (3.28) 10^3/mm^3
Basophils, absolute (male, 20 mg/kg, day 2): 0.03 (0.03) 10^3/mm^3
Eosinophils, absolute (male, 20 mg/kg, day 2): 0.15 (0.06)^c^,^d^,^e 10^3/mm^3
HDW (male, 20 mg/kg, day 2): 2.44 (0.25)^e g/dL
Hematocrits (male, 20 mg/kg, day 2): 37.30 (3.70)^d^,^e %
Hemoglobin (male, 20 mg/kg, day 2): 12.10 (1.00)^d^,^e g/dL
LUC, absolute (male, 20 mg/kg, day 2): 0.07 (0.05)^c^,^d^,^e 10^3/mm^3
Lymphocytes, absolute (male, 20 mg/kg, day 2): 4.24 (1.79)^d^,^e 10^3/mm^3
MCH (male, 20 mg/kg, day 2): 20.00 (0.60) pg
MCHC (male, 20 mg/kg, day 2): 31.80 (0.50) g/dL
MCV (male, 20 mg/kg, day 2): 62.50 (2.10) fL
Monocytes, absolute (male, 20 mg/kg, day 2): 0.93 (0.29)^c^,^d^,^e 10^3/mm^3
Neutrophils, absolute (male, 20 mg/kg, day 2): 8.40 (3.42)^c^,^d^,^e 10^3/mm^3
Platelets (male, 20 mg/kg, day 2): 728.00 (86.00)^c^,^d^,^e 10^3/mm^3
RBC (male, 20 mg/kg, day 2): 6.04 (0.47)^d^,^e 10^6/mm^3
RDW (male, 20 mg/kg, day 2): 14.30 (1.20) %
Reticulocytes, absolute (male, 20 mg/kg, day 2): 373.30 (106.50)^e 10^3/mm^3
WBC (male, 20 mg/kg, day 2): 13.70 (4.90)^c^,^d 10^3/mm^3
